Source: patent US20240383911A1, “AZAINDAZOLE MACROCYCLE COMPOUNDS AND USES THEREOF” (BROADENBIO CO., LTD, priority 2021, published 2024)

Legend:
FLT3 = target: T1, FLT3 (Homo sapiens, UniProt P36888); assay: FLT3 kinase activity inhibition test (HTRF); type: biochemical; conditions: read-out: IC50, inhibitory effects on FLT3 kinase activity
T1 sequence (P36888 27-993): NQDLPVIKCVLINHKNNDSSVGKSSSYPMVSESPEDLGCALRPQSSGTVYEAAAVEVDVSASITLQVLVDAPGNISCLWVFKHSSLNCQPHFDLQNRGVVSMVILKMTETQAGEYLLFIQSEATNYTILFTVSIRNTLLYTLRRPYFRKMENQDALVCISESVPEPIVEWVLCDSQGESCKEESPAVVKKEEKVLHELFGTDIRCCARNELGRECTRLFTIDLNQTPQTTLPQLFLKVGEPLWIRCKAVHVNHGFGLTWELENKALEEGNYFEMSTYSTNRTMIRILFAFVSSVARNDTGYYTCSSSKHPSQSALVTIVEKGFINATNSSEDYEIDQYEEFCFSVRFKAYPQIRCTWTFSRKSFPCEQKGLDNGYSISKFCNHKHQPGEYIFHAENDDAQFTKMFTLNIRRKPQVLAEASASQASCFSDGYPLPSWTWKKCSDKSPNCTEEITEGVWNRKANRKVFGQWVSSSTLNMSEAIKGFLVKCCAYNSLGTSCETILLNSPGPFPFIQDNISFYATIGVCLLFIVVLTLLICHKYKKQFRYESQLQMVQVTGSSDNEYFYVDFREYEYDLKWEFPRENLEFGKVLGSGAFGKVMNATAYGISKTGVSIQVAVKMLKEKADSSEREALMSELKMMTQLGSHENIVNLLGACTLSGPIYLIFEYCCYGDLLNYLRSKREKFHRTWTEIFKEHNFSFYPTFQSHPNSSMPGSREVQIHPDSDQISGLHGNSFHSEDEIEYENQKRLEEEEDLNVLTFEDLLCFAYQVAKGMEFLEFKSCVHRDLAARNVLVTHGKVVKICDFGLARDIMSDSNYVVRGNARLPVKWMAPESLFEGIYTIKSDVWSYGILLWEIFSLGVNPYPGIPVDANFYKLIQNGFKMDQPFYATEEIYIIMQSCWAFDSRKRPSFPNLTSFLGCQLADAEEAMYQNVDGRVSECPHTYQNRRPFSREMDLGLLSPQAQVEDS
Protocol: (§1) Tested compounds: compounds prepared in the Examples of this invention.
(§2) Prepare compound stock solution: dissolve the test compound in 100% DMSO to make a 10 mM stock solution. Dilute the stock solution of the test compound by 5 times with 100% DMSO, make a 4-fold equal dilution in a 96-well dilution plate, add 1 μL of the compound to 39 μL of kinase reaction buffer (1×kinase buffer, 5 mM MgCl2, 1 mM DTT), and shake on a microplate shaker for 20 minutes. 4×Positive control (4 μL of positive compound solution of the starting concentration, add 196 μL of kinase buffer) and 4×negative control (4 μL of 100% DMSO, add 196 μL of kinase buffer).
(§3) (1) Use 1×kinase reaction buffer to prepare 2.5×FLT3 kinase solution (160 μM), transfer 2 μL of the kinase solution to the 384 reaction plate, and add 1 μL of the test compound solution of gradient concentration to the 384 reaction plate (Greiner, Cat #784075), centrifuge for 1 minute (1000 rpm), and incubate at 25° C. for 10 minutes.
(§4) (2) Use 1×kinase reaction buffer to prepare 2.5×TK-substrate-biotin (2.5 μM) and 2.5×ATP (2.5 μM), mix well, and add 2 μL of the TK-substrate-biotin/ATP solution to the 384 reaction plate, centrifuge for 30 seconds (1000 rpm), and incubate at 25° C. for 40 minutes.
(§5) (3) Use HTRF detection buffer to prepare 2×Sa-XL 665 (125 nM) and 1×TK-antibody-Cryptate. Add 5 μL of a mixture of Sa-XL 665 and TK-antibody-Cryptate solutions to each well, centrifuge for 30 seconds (1000 rpm), and react at room temperature for 1 hour.
(§6) (4) The fluorescence signal is read using a Biotek multi-function plate reader, and the IC50 (half inhibitory concentration) of the compound is obtained using a four-coefficient nonlinear fitting formula.

KDR = KDR (Homo sapiens, UniProt P35968); assay: KDR kinase activity inhibition test (HTRF); type: biochemical; conditions: read-out: IC50, inhibitory effects on KDR kinase activity
Sequence of KDR (P35968 20-1356): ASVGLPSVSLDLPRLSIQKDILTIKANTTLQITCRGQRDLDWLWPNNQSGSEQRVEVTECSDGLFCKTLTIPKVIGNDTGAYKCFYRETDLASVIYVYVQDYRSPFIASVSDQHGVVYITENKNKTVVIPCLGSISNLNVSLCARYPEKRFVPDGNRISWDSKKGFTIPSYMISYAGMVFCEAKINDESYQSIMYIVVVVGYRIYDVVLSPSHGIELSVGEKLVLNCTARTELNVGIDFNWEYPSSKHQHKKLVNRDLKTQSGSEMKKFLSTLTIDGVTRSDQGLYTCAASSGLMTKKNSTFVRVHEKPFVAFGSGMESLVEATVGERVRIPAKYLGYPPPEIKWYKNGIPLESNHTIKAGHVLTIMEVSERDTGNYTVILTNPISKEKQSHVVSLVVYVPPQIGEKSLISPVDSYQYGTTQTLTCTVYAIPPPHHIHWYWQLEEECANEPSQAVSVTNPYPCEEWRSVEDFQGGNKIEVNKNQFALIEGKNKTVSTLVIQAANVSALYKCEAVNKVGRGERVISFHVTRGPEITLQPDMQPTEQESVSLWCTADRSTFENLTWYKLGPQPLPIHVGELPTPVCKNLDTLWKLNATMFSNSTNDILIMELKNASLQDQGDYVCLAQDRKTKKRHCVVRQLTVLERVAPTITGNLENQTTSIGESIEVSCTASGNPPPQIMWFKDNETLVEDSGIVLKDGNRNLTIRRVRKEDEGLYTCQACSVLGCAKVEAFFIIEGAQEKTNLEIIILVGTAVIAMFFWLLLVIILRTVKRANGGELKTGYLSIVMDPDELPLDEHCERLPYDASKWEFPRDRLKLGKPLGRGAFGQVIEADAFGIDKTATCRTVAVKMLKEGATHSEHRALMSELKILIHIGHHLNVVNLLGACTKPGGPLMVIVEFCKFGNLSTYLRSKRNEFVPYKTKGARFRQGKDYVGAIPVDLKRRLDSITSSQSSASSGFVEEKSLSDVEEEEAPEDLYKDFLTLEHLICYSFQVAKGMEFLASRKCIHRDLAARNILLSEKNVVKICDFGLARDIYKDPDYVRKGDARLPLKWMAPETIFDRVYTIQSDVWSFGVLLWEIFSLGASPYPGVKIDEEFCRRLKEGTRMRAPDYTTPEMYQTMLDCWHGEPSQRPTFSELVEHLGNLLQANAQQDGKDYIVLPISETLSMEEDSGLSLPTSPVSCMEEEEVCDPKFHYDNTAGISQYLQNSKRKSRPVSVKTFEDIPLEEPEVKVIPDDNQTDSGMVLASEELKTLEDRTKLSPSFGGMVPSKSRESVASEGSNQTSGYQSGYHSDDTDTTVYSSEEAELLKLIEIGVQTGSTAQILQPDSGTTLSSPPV
Protocol: as §1, §2
as §3, with “2.5×KDR” for “2.5×FLT3”, “(250” for “(160”
as §4, §5, §6

| IC50 (FLT3) [nM] | IC50 (KDR) [nM] | Structure (SMILES) |
| --- | --- | --- |
| 5 to 50 | 5 to 50 | CN1CCN(c2ncc3cc2OCCCOc2cccc(F)c2-c2cc4c-3n[nH]c4cn2)CC1 [Compound 3, 16-fluoro-5-(4-methylpiperazin-1-yl)-7,11-dioxa-4,19,22,23-tetraazapentacyclo[16.5.2.1^2,6.0^12,17.0^21,24]hexacosa-1(23),2(26),3,5,12,14,16,18,20,24-decaene] |
| ≤ 5 | ≤ 5 | CN1CCN(c2ccc3cc2OCCCOc2cccc(F)c2-c2cc4c-3n[nH]c4cn2)CC1 [Compound 6, 16-fluoro-5-(4-methylpiperazin-1-yl)-7,11-dioxa-19,22,23-triazapentacyclo[16.5.2.1^2,6.0^12,17.0^21,24]hexacosa-1(23),2(26),3,5,12,14,16,18,20,24-decaene] |
| ≤ 5 | ≤ 5 | CN1CCN(c2ccc3cc2OCCOCc2cccc(F)c2-c2cc4c-3n[nH]c4cn2)CC1 [Compound 9, 16-fluoro-5-(4-methylpiperazin-1-yl)-7,10-dioxa-19,22,23-triazapentacyclo[16.5.2.1^2,6.0^12,17.0^21,24]hexacosa-1(23),2(26),3,5,12,14,16,18,20,24-decaene] |
